# Assay results: patent US9169519B2, “SUMO as a marker of cancer development and target for cancer therapy” (Duke University, priority 2010, dated 2015)
# System: F98 rat glioblastoma cells
# Test: 3H-thymidine incorporation into DNA (DNA synthesis), with or without radiation
# Format: cell-based
# Details: 100 nM 4-HT versus vehicle, no radiation (FIG. 6B)
# Description: To investigate whether DNA synthesis of glioblastoma cells is modified by SUMO conjugation, the effects of suppressing SUMO conjugation on the incorporation of ^3H-thymidine into DNA was evaluated. SUMO conjugation was suppressed by blocking its expression using a miRNA approach. To avoid the risk of adaptive processes taking place in cells where SUMO expression had been silenced during the long selection process for stably transfected cells, a 4-hydroxy tamoxifen (4-HT)-inducible lentiviral system was used to express designed miRNAs (Callus et al., Cell Death Diff. 15: 213-219 (2008)). Briefly, the 4-HT inducible lentiviral system utilizes two constructs and the UAS/GAL4 system. […]
# The effect of SUMO1/2/3 miRNA expression on radiation induced impairment of DNA synthesis was investigated by measuring the uptake of ^3H-thymidine. […] Irradiated cells were detached with trypsin-EDTA (Fisher Scientific), counted, re-suspended in culture medium with supplements described above, and re-plated in a 96-well plate at a density of 10,000 cells per well. […] Cells were harvested 24 hr later following detachment with trypsin-EDTA, collected on filter paper, dried overnight, and immersed in scintillation cocktail (ICN Biochemicals), and counted for 10 min in a liquid scintillation counter. […]
substance,measurement,value
4-hydroxy tamoxifen [4-HT],3H-thymidine incorporation into DNA,did not produce any major change
